From patent publication US20030161853A1, “Methylglycinediacetic acid and deribatives thereof useful as exfoliating agents” (L'OREAL, priority 2002, published 2003)

Tested on: corneodesmosine
Experiment: Exfoliation test by measurement of the degradation of corneodesmosines (immunoblot of stratum corneum acetone powders, antibody G36-19, 46 kDa band)
Type: biochemical, human
Details: for Percentage increase in the degradation of corneodesmosine: aqueous solution containing 2% of active ingredient, pH 8.0, incubation 8 h at 34° C., relative to control without active ingredient; for % increase in the degradation of corneodesmosine: comparative chelating agents tested in the same manner as Example 1 (2% active ingredient, pH 8.0, 8 h at 34° C.)
From the text: Exfoliation Test by Measurement of the Degradation of Corneodesmosines
This Example studies the capacity of trisodium methylglycine diacetate to promote exfoliation by the degradation of corneodesmosines.
Corneodesmosine is one of the majority markers of exfoliation in the corneodesmosome. It is studied by immunoblotting after separation by electrophoresis and transfer to a membrane. […] The murine monoclonal antibody G36-19 is specific for corneodesmosine; it belongs to a series of antibodies directed against epidermal differentiation antigens, produced after the immunization of a mouse with a human plantar horny layer homogenate, and then characterized (Serre G. et al, J. Invest. Dermatol. 1991, 97(6), 1061-72).
Varnish strippings are performed on the lower legs of volunteers (modification of the procedure of Lundström A. and Egelrud T., Acta Derm. Venereol. (stockh) 71, 471-474, 1991). The nylon-varnish leaves associated with the corneocytes are immersed in acetone (1 ml/cm^2) to detach the corneocytes. The mixture is filtered then rinsed three times with the same volume of acetone in order to remove all traces of varnish. Finally, the mixture is dried under vacuum:
acetone-containing powders of stratum corneum are thus obtained.
The acetone-containing powders are divided up into 1 mg aliquots. 100 μl of aqueous solutions containing 2% of active ingredient, adjusted to pH 8.0, are added. Controls without active ingredient are prepared under the same conditions. Two incubation times are studied: t=0 and t=8 h. In the latter case, incubation takes place at 34° C. with agitation.
After incubation, the mixtures are centrifuged for 10 min at 10,000 g. The supernatant is removed and replaced with 100 μl of Laemmli buffer (0.0625 M Tris/HCl pH 6.8, 2% SDS, 200 mM DTT, 10% glycerol) for extraction of the proteins. The mixture is boiled for 10 min at 100° C. and then ground in a Potter mill. The mixture is centrifuged for 10 min at 10,000 g and the supernatant is then collected. It contains the corneodesmosomal proteins.
The total proteins are assayed by Bradford's method (Biorad kit). This allows an adjustment of the samples to 0.6 mg/ml and a true comparison of the treatments. The samples together with a Rainbow low-molecular standard (Amersham Pharmacia Biotech), in a ratio of ⅓, are separated by electrophoresis on 12% acrylamide gel for ½ h at 100 V and then for 1 h at 200 V. After electrophoresis, the proteins are transferred to an Immobilon-P membrane (Millipore) for 3 h at 60 V. The membrane is then incubated for 2 times 15 min in TBS-TL buffer (Tris 25 mM, 0.15 M NaCl pH 7.2, 0.05% Tween 20, 0.5% skimmed milk powder) to block the non-specific sites. Incubation with the antibody G36-19, in a ratio of 1/12,500, is performed overnight at 4° C. After two rinses of 5 min in TBS-TL, the membrane is incubated with an IG(H+L) anti-mouse goat antibody/peroxidase conjugate (Biorad), in a ratio of 1/4000, for 1 h 30 min at room temperature. After several rinses of 5 min in TBS-TL and then TBS (without milk or Tween), the membrane is incubated for 1 min in 10 ml of ECL reagent (Amersham Pharmacia Biotech). The chemiluminescence of the corneodesmosine bands is measured with FluorS Multimager (Biorad). The 46 kDa band is quantified using the Quantity-one software (Biorad).
Glycine is used as a reference compound in this study, it having been shown in patent application EP-A2-0 852 949 (Shiseido) that glycine promotes the degradation of desmoglein (corneodesmosomal protein). […]

SMILES	Percentage increase in the degradation of corneodesmosine [%]	% increase in the degradation of corneodesmosine [%]	effect on the degradation of corneodesmosines (in words) (2% active ingredient, pH 8.0, 8 h at 34° C.)
NCC(=O)O [Glycine]	30		
CCCCCCCCCCCC(=O)N(CCN(CC(=O)O)CC(=O)O)CC(=O)O [Lauroylethylenediaminetriacetic acid, lauroylethylenediaminetriacetic acid]		−80	
N=C(CC(=O)[O-])C(=O)[O-].[Na+].[Na+] [Na iminosuccinate, sodium iminosuccinate]		−79	
CC(C(=O)[O-])N(CC(=O)[O-])CC(=O)[O-].[Na+].[Na+].[Na+] (centres unmarked) [Trisodium methylglycine diacetate, trisodium methylglycine diacetate]	59		promotes the degradation of corneodesmosines
